# Patent US10253002B2, “Compounds and methods of treating infections” (Neoculi Pty Ltd., priority 2013, dated 2019)
# “And” between values parts separate entries of the source, which are not always exact repeats. Equal values may be shown once. Read-outs that look alike come from different tables or passages of the source.
# How the values were obtained:
# [1] = tested on: S. aureus clinical isolates (MRSA and MSSA); experiment: Minimum bactericidal concentration (MBC), Example 4; format: cell-based, Staphylococcus aureus; details: for MBC: Staphylococcus aureus
# Excerpt: The MBC was defined as the lowest drug concentration at which 99.95% of the original inoculum was eliminated.
# [2] = tested on: DNA synthesis in S. aureus ATCC 29213; experiment: Macromolecular synthesis assay: DNA synthesis ([3H] thymidine); format: cell-based, Staphylococcus aureus
# Method: (§1) Cells were grown at 35° C. overnight on Trypticase Soy agar. A colony from the plate was used to inoculate 10 ml of Mueller Hinton broth II (MHBII), and the culture was grown to early exponential growth phase (OD600==0.2 to 0.3) while incubating in a shaker at 35° C. and 200 rpm.
# When cells reached early exponential phase, 100 μL of culture was added to triplicate wells containing various concentrations of test compound or control antibiotics (5 μL) at 20× the final concentration in 100% DMSO. A 5% DMSO treated culture served as the “no drug” control for all experiments. Cells were added in MHBII at 105% to account for the volume of drug added to each reaction or in M9 minimal medium for protein synthesis reactions. Following 15 min incubation at room temperature, either [^3H] thymidine (DNA synthesis), [^3H] uridine (RNA synthesis) or [^3H] leucine (protein synthesis) was added at 0.5-1.0 μCi per reaction, depending on the experiment. Reactions were allowed to proceed at room temperature for 15-30 min and then stopped by adding 12 μL of cold 5% trichloroacetic acid (TCA) or 5% TCA/2% casamino acids (protein synthesis only). Reactions were incubated on ice for 30 min and the TCA precipitated material was collected on a 25 mm GF/A filter. After washing three times with 5 ml of cold 5% TCA, the filters were rinsed two times with 5 mL 100% ethanol, allowed to dry, and then counted using a Beckman LS3801 liquid scintillation counter.
# MRSA = experiment: Kill kinetics assay, Example 7; format: cell-based, Staphylococcus aureus
# Method: MRSA/VRE were grown overnight on Columbia SBA at 37° C. A few colonies of bacteria were then suspended in CAMHB and adjusted to an optical density of 0.08 to 0.10. The bacterial suspension was diluted 1:10. […] The tubes were incubated at 37° C. In order to determine the number of viable bacteria present at various time points, a 100 μL aliquot was removed from each tube and diluted in normal saline. Then, 100 μL of each dilution was spread onto colony count agar, in duplicate, and incubated for 48 h at 37° C. After 24 h the numbers of colonies present on each plate were counted and therefore the number of viable bacteria present in the original suspension enumerated. Plates were re-checked after 48 hours.
# [3] = tested on: non-VRE Enterococcus faecalis USA01; experiment: MBC (CLSI methodology), Example 8; format: cell-based; details: for NCL812 MBC test, growth on Sheep Blood Agar / Number of Bacteria Growing after 24 hours per ml of sample: E. faecalis (USA01)
# VRE isolates = experiment: MBC (CLSI methodology), Example 7; format: cell-based, Enterococcus spp.; design: key: M = many bacteria growing on the plate (too many to count)
# E. faecalis USA01 = experiment: Kill kinetics assay, Example 8; format: cell-based, Enterococcus faecalis
# Method: S. aureus KC01 and E. faecalis USA01, not determined to be MRSA or VRE, respectively, were grown overnight on Columbia SBA at 37° C. A few colonies of bacteria were then suspended in CAMHB (cation-adjusted Mueller Hinton broth) and adjusted to OD600 of 0.08 to 0.10. The bacterial suspension was diluted 1:10. […] The tubes were incubated at 37° C., with constant shaking. In order to determine the number of viable bacteria present at various time points, a 100 μL aliquot was removed from each tube and diluted. Then, 100 μL of each dilution were spread onto colony count agar, in duplicate, and incubated for 48 h at 37° C. After 24 h the numbers of colonies present on each plate were counted and therefore the number of viable bacteria present in the original suspension enumerated. Plates were re-checked after 48 hours.
# [4] = tested on: RNA synthesis in S. aureus ATCC 29213; experiment: Macromolecular synthesis assay: RNA synthesis ([3H] uridine); format: cell-based, Staphylococcus aureus; details: 0.25 to 8 fold the MIC; rifampicin positive control
# Method: as §1
# When cells reached early exponential phase, 100 μL of culture was added to triplicate wells containing various concentrations of test compound or control antibiotics (5 μL) at 20× the final concentration in 100% DMSO. A 5% DMSO treated culture served as the “no drug” control for all experiments. Cells were added in MHBII at 105% to account for the volume of drug added to each reaction or in M9 minimal medium for protein synthesis reactions. Following 15 min incubation at room temperature, either [^3H] thymidine (DNA synthesis), [^3H] uridine (RNA synthesis) or [^3H] leucine (protein synthesis) was added at 0.5-1.0 μCi per reaction, depending on the experiment. Reactions were allowed to proceed at room temperature for 15-30 min and then stopped by adding 12 μL of cold 5% trichloroacetic acid (TCA) or 5% TCA/2% casamino acids (protein synthesis only). […] After washing three times with 5 ml of cold 5% TCA, the filters were rinsed two times with 5 mL 100% ethanol, allowed to dry, and then counted using a Beckman LS3801 liquid scintillation counter.
structure (smiles),measurement,setting,value
"N=C(N/N=C/c1ccc(Cl)cc1)N/N=C/c1ccc(Cl)cc1 [NCL812, 1,3-bis[(E)-(4-chlorophenyl)methyleneamino]guanidine]",S. aureus isolates with MBC equivalent to the MIC,[1]; 30 isolates,93.33%
same,MBCrange,[1]; CA-MRSA (n = 10),2 to 4 µg/mL
same,MBCrange,[1]; HA-MRSA (n = 10),4 to 8 µg/mL
same,MBCrange,[1]; Methicillin-susceptible staphylococci (n = 10),2 to 8 µg/mL
same,MBC,"[1]; CA-MRSA (n = 10), read-out: MBC50",4 µg/mL
same,MBC,"[1]; CA-MRSA (n = 10), read-out: MBC90",4 µg/mL
same,MBC,"[1]; HA-MRSA (n = 10), read-out: MBC50",8 µg/mL
same,MBC,"[1]; HA-MRSA (n = 10), read-out: MBC90",8 µg/mL
same,MBC,"[1]; Methicillin-susceptible staphylococci (n = 10), read-out: MBC50",4 µg/mL
same,MBC,"[1]; Methicillin-susceptible staphylococci (n = 10), read-out: MBC90",8 µg/mL
same,MBC,"[1]; Total bacterial isolates (n = 30), read-out: MBC50",4 µg/mL
same,MBC,"[1]; Total bacterial isolates (n = 30), read-out: MBC90",8 µg/mL
same,MBCrange,[1]; Total bacterial isolates (n = 30),2 to 8 µg/mL
same,inhibition of DNA synthesis,[2]; 0.5 fold the MIC,40%
same,inhibition of DNA synthesis,[2]; […] the MIC,no inhibition
same,inhibition of DNA synthesis,[2]; at the MIC,approximately 95%
same,numbers of bacteria versus control,"MRSA; after 24 h, all NCL812 concentrations",not significantly different to the control
same,reduction in comparison to the growth control,MRSA; at 4 h,at least 2.5 log10 CFU/mL
same,difference between the control and bacteria exposed to NCL812,MRSA; at 8 h,≥ 3.5 log10 CFU/mL
same,"NCL812 MBC test, growth on Sheep Blood Agar",[3]; 4 μg/ml,+
same,Number of Bacteria Growing after 24 hours per ml of sample,[3]; 4 μg/ml,488 CFU/ml
same,"NCL812 MBC test, growth on Sheep Blood Agar",[3]; 8 μg/ml,+
same,"NCL812 MBC test, growth on Sheep Blood Agar",[3]; 16 μg/ml,+
same,"NCL812 MBC test, growth on Sheep Blood Agar",[3]; 32 μg/ml,+
same,Number of Bacteria Growing after 24 hours per ml of sample,[3]; 32 μg/ml,7 CFU/ml
same,"NCL812 MBC test, growth on Sheep Blood Agar",[3]; 64 μg/ml,+
same,Number of Bacteria Growing after 24 hours per ml of sample,[3]; 64 μg/ml,1 CFU/ml
same,"NCL812 MBC test, growth on Sheep Blood Agar",[3]; […],+
same,MBC test outcome,[3]; E. faecalis USA01,growth of bacteria was observed at all concentrations of NCL812 tested
same,NCL812 MBC: number of bacteria growing after 24 hours per ml of sample,"VRE isolates; VRE 12c, NCL812 2 μg/ml",0 CFU/ml
same,NCL812 MBC: number of bacteria growing after 24 hours per ml of sample,"VRE isolates; VRE 12c, NCL812 16 μg/ml",M
same,NCL812 MBC: number of bacteria growing after 24 hours per ml of sample,"VRE isolates; VRE 12c, NCL812 32 μg/ml",M
same,NCL812 MBC: number of bacteria growing after 24 hours per ml of sample,"VRE isolates; VRE 12c, NCL812 64 μg/ml",M
same,NCL812 MBC: number of bacteria growing after 24 hours per ml of sample,"VRE isolates; VRE 12c, NCL812 […]",M
same,NCL812 MBC: number of bacteria growing after 24 hours per ml of sample,"VRE isolates; VRE 14t, NCL812 4 μg/ml",0 CFU/ml
same,NCL812 MBC: number of bacteria growing after 24 hours per ml of sample,"VRE isolates; VRE 14t, NCL812 […]",M
same,NCL812 MBC: number of bacteria growing after 24 hours per ml of sample,"VRE isolates; VRE 16c(dc), NCL812 16 μg/ml",M
same,NCL812 MBC: number of bacteria growing after 24 hours per ml of sample,"VRE isolates; VRE 16c(dc), NCL812 32 μg/ml",M
same,NCL812 MBC: number of bacteria growing after 24 hours per ml of sample,"VRE isolates; VRE 16c(dc), NCL812 64 μg/ml",M
same,NCL812 MBC: number of bacteria growing after 24 hours per ml of sample,"VRE isolates; VRE 16c(dc), NCL812 […]",M
same,NCL812 MBC: number of bacteria growing after 24 hours per ml of sample,"VRE isolates; VRE 16c, NCL812 4 μg/ml",820 CFU/ml and 790 CFU/ml
same,NCL812 MBC: number of bacteria growing after 24 hours per ml of sample,"VRE isolates; VRE 16c, NCL812 8 μg/ml",980 CFU/ml and 890 CFU/ml
same,NCL812 MBC: number of bacteria growing after 24 hours per ml of sample,"VRE isolates; VRE 16c, NCL812 16 μg/ml",M
same,NCL812 MBC: number of bacteria growing after 24 hours per ml of sample,"VRE isolates; VRE 16c, NCL812 32 μg/ml",M
same,NCL812 MBC: number of bacteria growing after 24 hours per ml of sample,"VRE isolates; VRE 16c, NCL812 64 μg/ml",M
same,NCL812 MBC: number of bacteria growing after 24 hours per ml of sample,"VRE isolates; VRE 16c, NCL812 […]",M
same,NCL812 MBC: number of bacteria growing after 24 hours per ml of sample,"VRE isolates; VRE 19t, NCL812 4 μg/ml",0 CFU/ml
same,NCL812 MBC: number of bacteria growing after 24 hours per ml of sample,"VRE isolates; VRE 19t, NCL812 8 μg/ml",0 CFU/ml
same,NCL812 MBC: number of bacteria growing after 24 hours per ml of sample,"VRE isolates; VRE 19t, NCL812 […]",M
same,NCL812 MBC: number of bacteria growing after 24 hours per ml of sample,"VRE isolates; VRE 23c, NCL812 2 μg/ml",0 CFU/ml
same,NCL812 MBC: number of bacteria growing after 24 hours per ml of sample,"VRE isolates; VRE 23c, NCL812 64 μg/ml",M
same,NCL812 MBC: number of bacteria growing after 24 hours per ml of sample,"VRE isolates; VRE 23c, NCL812 […]",M
same,NCL812 MBC: number of bacteria growing after 24 hours per ml of sample,"VRE isolates; VRE 25c, NCL812 8 μg/ml",M
same,NCL812 MBC: number of bacteria growing after 24 hours per ml of sample,"VRE isolates; VRE 25c, NCL812 16 μg/ml",M
same,NCL812 MBC: number of bacteria growing after 24 hours per ml of sample,"VRE isolates; VRE 25c, NCL812 32 μg/ml",M
same,NCL812 MBC: number of bacteria growing after 24 hours per ml of sample,"VRE isolates; VRE 25c, NCL812 64 μg/ml",M
same,NCL812 MBC: number of bacteria growing after 24 hours per ml of sample,"VRE isolates; VRE 25c, NCL812 […]",M
same,NCL812 MBC: number of bacteria growing after 24 hours per ml of sample,"VRE isolates; VRE 26c(dc), NCL812 8 μg/ml",4000 CFU/ml and 3500 CFU/ml
same,NCL812 MBC: number of bacteria growing after 24 hours per ml of sample,"VRE isolates; VRE 26c(dc), NCL812 16 μg/ml",M
same,NCL812 MBC: number of bacteria growing after 24 hours per ml of sample,"VRE isolates; VRE 26c(dc), NCL812 32 μg/ml",M
same,NCL812 MBC: number of bacteria growing after 24 hours per ml of sample,"VRE isolates; VRE 26c(dc), NCL812 64 μg/ml",M
same,NCL812 MBC: number of bacteria growing after 24 hours per ml of sample,"VRE isolates; VRE 26c(dc), NCL812 […]",M
same,NCL812 MBC: number of bacteria growing after 24 hours per ml of sample,"VRE isolates; VRE 35t, NCL812 2 μg/ml",0 CFU/ml
same,NCL812 MBC: number of bacteria growing after 24 hours per ml of sample,"VRE isolates; VRE 35t, NCL812 4 μg/ml",0 CFU/ml
same,NCL812 MBC: number of bacteria growing after 24 hours per ml of sample,"VRE isolates; VRE 35t, NCL812 8 μg/ml",0 CFU/ml
same,NCL812 MBC: number of bacteria growing after 24 hours per ml of sample,"VRE isolates; VRE 37c, NCL812 4 μg/ml",100 CFU/ml and 50 CFU/ml
same,NCL812 MBC: number of bacteria growing after 24 hours per ml of sample,"VRE isolates; VRE 37c, NCL812 64 μg/ml",M
same,NCL812 MBC: number of bacteria growing after 24 hours per ml of sample,"VRE isolates; VRE 37c, NCL812 […]",M
same,rise in bacterial numbers,"E. faecalis USA01; 32 and 64 μg/mL, until the 6 h time point",~1 log10
same,reduction in CFU/mL compared to the growth control,E. faecalis USA01; 2 h,2 log10
same,reduction in CFU/mL compared to the original bacterial numbers,E. faecalis USA01; 2 h,greater than 1 log10
same,bacterial numbers versus growth control,"E. faecalis USA01; at 24 h, all concentrations",increased to almost the same level as the growth control
same,inhibition of RNA synthesis,[4],very similar to the DNA synthesis study
